Measurements reported in ChEMBL document CHEMBL3351825, “Polyoxypregnane steroids from the stems of Marsdenia tenacissima” (J Nat Prod, 2014).
Blank lines part the entries; values can stand above or below the molecule they belong to. The source made the active and inactive calls. The calls are words filed in the database; no cut-off is given here.

What was measured:
[1] = Cytotoxicity against human H460/Vbl cells after 72 hrs by SRB assay
[2] = Cytotoxicity against human H460 cells after 72 hrs by SRB assay; details: NCI-H460, 72 h
NCI-H292 [3] = test: Cytotoxicity against human NCI-H292 cells after 72 hrs by SRB assay; assay type: functional, cell-based; details: NCI-H292, 72 h
cells = details: Homo sapiens, SW620/AD300, 72 h
Description: Growth inhibition of human SW620/AD300 cells after 72 hrs by SRB assay

SW-620 [4] = test: Ratio of IC50 for human SW620/AD300 cells to IC50 for human SW620 cells; assay type: functional
SW-620 [5] = test: cells; details: Homo sapiens, SW-620, 72 h
Description: Growth inhibition of human SW620 cells after 72 hrs by SRB assay

[6] = Reversal of P-gp-mediated resistance to doxorubicin in human SW620/AD300 cells assessed as reduction in doxorubin IC50 at 10 uM after 72 hrs by SRB assay; assay type: cell-based; details: SW620/AD300, 72 h
NCI-H292 [7] = test: Induction of apoptosis in human NCI-H292 cells at 10 uM after 24 hrs using annexin V by flow cytometry in presence of 1 uM gefitinib; assay type: functional, cell-based
[8] = Reversal of P-gp-mediated resistance to cisplatin in human SW620/AD300 cells assessed as reduction in doxorubin IC50 at 10 uM after 72 hrs by SRB assay; assay type: cell-based; details: SW620/AD300, 72 h
NCI-H292 [9] = test: Induction of apoptosis in human NCI-H292 cells at 10 uM after 24 hrs using annexin V by flow cytometry; assay type: functional, cell-based
[10] = Reversal of P-gp-mediated resistance to doxorubicin in human SW620/AD300 cells assessed as reduction in doxorubin IC50 at 2 uM after 72 hrs by SRB assay; assay type: cell-based; details: SW620/AD300, 72 h
[11] = Reversal of P-gp-mediated resistance to cisplatin in human SW620 cells assessed as reduction in doxorubin IC50 at 10 uM after 72 hrs by SRB assay; assay type: cell-based; details: SW-620, 72 h
NCI-H460 [12] = test: Induction of apoptosis in human NCI-H460 cells at 10 uM after 24 hrs using annexin V by flow cytometry in presence of 1 uM gefitinib; assay type: functional, cell-based
NCI-H460 [13] = test: Induction of apoptosis in human NCI-H460 cells at 10 uM after 24 hrs using annexin V by flow cytometry; assay type: functional, cell-based
[14] = Reversal of P-gp-mediated resistance to cisplatin in human SW620 cells assessed as reduction in doxorubin IC50 at 2 uM after 72 hrs by SRB assay; assay type: cell-based; details: SW-620, 72 h
[15] = target: T1, ATP-dependent translocase ABCB1 (Homo sapiens, UniProt P08183); test: Inhibition of P-gp in human SW620/AD300 cells assessed as reduction in rhodamine 123 efflux at 50 uM by flow cytometry; assay type: cell-based; details: sw620/ad300, 50 µM
NCI-H460 [16] = test: Induction of apoptosis in human NCI-H460/Vbl cells at 10 uM after 24 hrs using annexin V by flow cytometry; assay type: functional, cell-based
[17] = target: T1, ATP-dependent translocase ABCB1; test: Inhibition of P-gp in human SW620/AD300 cells assessed as reduction in rhodamine 123 efflux by flow cytometry; assay type: cell-based
NCI-H460 [18] = test: Induction of apoptosis in human NCI-H460/Vbl cells at 10 uM after 24 hrs using annexin V by flow cytometry in presence of 1 uM gefitinib; assay type: functional, cell-based
[19] = Reversal of P-gp-mediated resistance to cisplatin in human SW620/AD300 cells assessed as reduction in doxorubin IC50 at 2 uM after 72 hrs by SRB assay; assay type: cell-based; details: SW620/AD300, 72 h
[20] = Reversal of P-gp-mediated resistance to doxorubicin in human SW620 cells assessed as reduction in doxorubin IC50 at 2 uM after 72 hrs by SRB assay; assay type: cell-based; details: SW-620, 72 h
SW-620 [21] = test: Reversal of P-gp-mediated resistance assessed as ratio of doxorubicin IC50 for human SW620/AD300 cells to doxorubicin IC50 for human SW620 cells in presence of compound at 400 nM; assay type: cell-based
[22] = Reversal of P-gp-mediated resistance to doxorubicin in human SW620/AD300 cells assessed as reduction in doxorubin IC50 at 400 nM after 72 hrs by SRB assay; assay type: cell-based; details: SW620/AD300, 72 h
[23] = Reversal of P-gp-mediated resistance to doxorubicin in human SW620 cells assessed as reduction in doxorubin IC50 at 400 nM after 72 hrs by SRB assay; assay type: cell-based; details: SW-620, 72 h

T1 sequence (P08183 whole entry): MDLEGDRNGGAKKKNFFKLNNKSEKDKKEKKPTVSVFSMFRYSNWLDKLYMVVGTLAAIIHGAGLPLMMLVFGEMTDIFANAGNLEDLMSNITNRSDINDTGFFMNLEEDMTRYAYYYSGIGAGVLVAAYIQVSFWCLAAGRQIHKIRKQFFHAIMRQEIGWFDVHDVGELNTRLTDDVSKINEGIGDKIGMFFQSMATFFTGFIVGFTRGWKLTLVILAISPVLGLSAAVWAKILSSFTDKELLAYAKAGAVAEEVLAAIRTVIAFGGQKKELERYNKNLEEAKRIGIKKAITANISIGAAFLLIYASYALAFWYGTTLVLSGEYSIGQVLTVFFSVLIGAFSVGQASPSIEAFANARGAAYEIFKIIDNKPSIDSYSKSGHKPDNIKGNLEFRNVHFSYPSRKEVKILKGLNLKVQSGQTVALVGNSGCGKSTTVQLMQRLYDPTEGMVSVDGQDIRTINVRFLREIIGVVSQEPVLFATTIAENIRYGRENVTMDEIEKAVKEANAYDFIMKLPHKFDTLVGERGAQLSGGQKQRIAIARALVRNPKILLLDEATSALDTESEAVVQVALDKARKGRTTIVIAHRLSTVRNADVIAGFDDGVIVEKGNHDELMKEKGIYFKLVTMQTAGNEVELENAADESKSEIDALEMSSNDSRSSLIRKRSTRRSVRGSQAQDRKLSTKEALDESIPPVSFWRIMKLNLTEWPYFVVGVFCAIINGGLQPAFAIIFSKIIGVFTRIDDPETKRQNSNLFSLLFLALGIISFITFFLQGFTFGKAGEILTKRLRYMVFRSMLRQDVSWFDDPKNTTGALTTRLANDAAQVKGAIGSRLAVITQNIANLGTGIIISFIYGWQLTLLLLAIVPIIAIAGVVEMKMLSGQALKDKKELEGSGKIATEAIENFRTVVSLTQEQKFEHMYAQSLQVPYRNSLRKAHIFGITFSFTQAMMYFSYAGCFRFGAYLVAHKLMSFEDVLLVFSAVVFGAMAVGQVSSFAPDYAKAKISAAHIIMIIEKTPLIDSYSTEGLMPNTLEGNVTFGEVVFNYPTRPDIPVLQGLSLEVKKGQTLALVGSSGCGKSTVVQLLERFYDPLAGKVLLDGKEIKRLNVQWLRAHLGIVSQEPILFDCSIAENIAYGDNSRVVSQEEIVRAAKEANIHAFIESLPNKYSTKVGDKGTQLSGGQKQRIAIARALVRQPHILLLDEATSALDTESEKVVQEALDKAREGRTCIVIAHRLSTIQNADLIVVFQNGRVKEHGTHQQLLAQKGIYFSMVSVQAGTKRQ

Structure (SMILES): C#Cc1cccc(Nc2ncnc3cc(OCCOC)c(OCCOC)cc23)c1 [ERLOTINIB]
IC50 [1]: 21.5 µM | IC50 [2]: 9.5 µM | IC50 (NCI-H292 [3]): 1 µM

IC50 (cells): 28.2 µM | IC50 (SW-620 [5]): 0.17 µM
Structure (SMILES): COc1cccc2c1C(=O)c1c(O)c3c(c(O)c1C2=O)C[C@@](O)(C(=O)CO)C[C@@H]3O[C@H]1C[C@H](N)[C@H](O)[C@H](C)O1 [DOXORUBICIN]
Ratio IC50 (SW-620 [4]): 166

Structure (SMILES): C/C=C(\C)C(=O)O[C@@H]1[C@@H](O)[C@]2(C)[C@@H](C(C)=O)CC[C@@]23O[C@]32CC[C@H]3C[C@@H](O[C@H]4C[C@@H](OC)[C@H](O[C@@H]5O[C@H](C)[C@@H](O)[C@@H](OC)[C@H]5O)[C@@H](C)O4)CC[C@]3(C)[C@@H]12
IC50 [6]: 25.6 µM

Structure (SMILES): CO[C@H]1[C@@H](O)[C@H](O[C@@H]2[C@@H](C)O[C@@H](O[C@H]3CC[C@@]4(C)[C@@H](CC[C@@]56O[C@@]57CC[C@H](C(C)=O)[C@@]7(C)[C@H](O)[C@@H](OC(C)=O)[C@H]46)C3)C[C@H]2OC)O[C@H](C)[C@H]1O
IC50 [6]: 23.4 µM

Structure (SMILES): CCC(C)C(=O)O[C@@H]1[C@@H](OC(C)=O)[C@]2(C)[C@@H](C(C)=O)CC[C@@]23O[C@]32CC[C@H]3CC(=O)CC[C@]3(C)[C@@H]12 (stereo not given in full)
Activity (NCI-H292 [7]): Active | IC50 [8]: 10.2 µM | Activity (NCI-H292 [9]): inactive | IC50 [10]: 2.1 µM | IC50 [6]: 0.85 µM | IC50 [11]: 9.4 µM | Activity (NCI-H460 [12]): Active | Activity (NCI-H460 [13]): inactive | IC50 [14]: 11.5 µM | inhibition (INH) [15]: Active | Activity (NCI-H460 [16]): inactive | inhibition (INH) [17]: Dose-dependent effect | Activity (NCI-H460 [18]): Active | IC50 [19]: 12 µM | IC50 [20]: 0.11 µM

Structure (SMILES): C/C=C/C[C@@H](C)C(=O)[C@H]1C(=O)N[C@@H](C(C)C)C(=O)N(C)CC(=O)N(C)[C@@H](CC(C)C)C(=O)N[C@@H](C(C)C)C(=O)N(C)[C@@H](CC(C)C)C(=O)N[C@@H](C)C(=O)N[C@H](C)C(=O)N(C)[C@@H](CC(C)C)C(=O)N(C)[C@@H](CC(C)C)C(=O)N(C)[C@@H](C(C)C)C(=O)N1C [VALSPODAR]
Ratio IC50 (SW-620 [21]): 2 | IC50 [22]: 0.22 µM | IC50 [23]: 0.1 µM

Structure (SMILES): CO[C@H]1[C@@H](O)[C@H](O[C@@H]2[C@@H](C)O[C@@H](O[C@H]3CC[C@@]4(C)[C@@H](CC[C@@]56O[C@@]57CC[C@H](C(C)=O)[C@@]7(C)[C@H](OC(C)=O)[C@@H](OC(=O)c5ccccc5)[C@H]46)C3)C[C@H]2OC)O[C@H](C)[C@H]1O[C@@H]1O[C@H](CO)[C@@H](O[C@@H]2O[C@H](CO)[C@@H](O)[C@H](O)[C@H]2O)[C@H](O)[C@H]1O
IC50 [6]: 26.8 µM

Structure (SMILES): CO[C@H]1[C@@H](O)[C@H](O[C@@H]2[C@@H](C)O[C@@H](O[C@H]3CC[C@@]4(C)[C@@H](CC[C@@]56O[C@@]57CC[C@H](C(C)=O)[C@@]7(C)[C@H](O)[C@@H](O)[C@H]46)C3)C[C@H]2OC)O[C@H](C)[C@H]1O[C@@H]1O[C@H](CO)[C@@H](O)[C@H](O)[C@H]1O
IC50 [6]: 24.8 µM

Structure (SMILES): CO[C@H]1[C@@H](O)[C@H](O[C@@H]2[C@@H](C)O[C@@H](O[C@H]3CC[C@@]4(C)[C@@H](CC[C@@]56O[C@@]57CC[C@H](C(C)=O)[C@@]7(C)[C@H](O)[C@@H](OC(=O)c5ccccc5)[C@H]46)C3)C[C@H]2OC)O[C@H](C)[C@H]1O
IC50 [6]: 23.4 µM

Structure (SMILES): C/C=C(\C)C(=O)O[C@@H]1[C@@H](O)[C@]2(C)[C@@H](C(C)=O)CC[C@@]23O[C@]32CC[C@H]3C[C@@H](O[C@H]4C[C@@H](OC)[C@H](O[C@@H]5O[C@H](C)[C@@H](O[C@@H]6O[C@H](CO)[C@@H](O)[C@H](O)[C@H]6O)[C@@H](OC)[C@H]5O)[C@@H](C)O4)CC[C@]3(C)[C@@H]12
IC50 [6]: 23.9 µM
